Experimental data from patent publication US8859250B2, “Crystal structure of glutaminyl cyclase” (Probiodrug AG, priority 2010, dated 2014).

Assays:
[1] = target: T1, murine QC (mQC) (Mus musculus, UniProt Q9CYK2); assay: Ki-values of selected inhibitors for murine QC; assay type: biochemical; conditions: murine glutaminyl cyclase
T1 construct: made in house; host or cells: Pichia pastoris (vector pPICZalphaB, secreted)

[2] = Solubility in water; assay type: physicochemical

T1 sequence (Q9CYK2 36-362): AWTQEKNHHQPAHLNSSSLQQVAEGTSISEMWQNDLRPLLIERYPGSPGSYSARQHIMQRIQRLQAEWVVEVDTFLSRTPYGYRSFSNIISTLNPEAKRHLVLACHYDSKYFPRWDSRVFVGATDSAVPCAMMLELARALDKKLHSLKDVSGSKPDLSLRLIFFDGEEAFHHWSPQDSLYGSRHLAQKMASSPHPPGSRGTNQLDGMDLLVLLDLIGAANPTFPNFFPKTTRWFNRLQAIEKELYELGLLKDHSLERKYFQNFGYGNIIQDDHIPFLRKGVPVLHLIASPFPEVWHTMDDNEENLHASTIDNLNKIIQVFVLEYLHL

SMILES: Cc1cc(C)c(N/C(=N/C#N)NCCCn2cncc2C)c(C)c1 [Inhibitor C]
- Ki [1]: 0.0513 µM

SMILES: COc1ccc(NC(=S)NCCCn2ccnc2)cc1OC [Inhibitor A, 1-(3-(1H-Imidazol-1-yl)propyl)-3-(3,4-dimethoxyphenyl)thiourea]
- Ki [1]: 0.173 µM
- solubility in water [2]: soluble in water
